Source: ChEMBL document CHEMBL3885861, “Open TG-GATES”

Species: Rattus norvegicus
Assay: Open TG-GATES - Regimen: Daily Repeat
Type: toxicity, organism-based, Sprague-Dawley
Parameters: regimen Daily Repeat, gender Male, age 6 weeks
Conditions: in vivo, po, 300 mg/kg, route gavage, dose level High; for APTT / Bas / Eos / Fbg / Hb / Ht / Lym / MCH / MCHC / MCV / Mono / Neu / PT / Plat / RBC / Ret / WBC: tissue Blood; for KIDNEY_L / KIDNEY_R / KIDNEY_TOTAL: tissue Kidney; for LIVER: tissue Liver; for A/G / ALP / ALT / AST / BUN / CRE / Ca / Cl / DBIL / GLC / IP / K / LDH / Na / PL / RALB / TBIL / TC / TG / TP / gamma-GTP: tissue Plasma

Structure (SMILES): CCc1oc2ccccc2c1C(=O)c1cc(I)c(O)c(I)c1 [BENZIODARONE]
- TERMINAL_BW (72 h, time 3 day): 237.2 g
- APTT (72 h, time 3 day): 19.4 s
- Bas (72 h, time 3 day): 0%
- Eos (72 h, time 3 day): 1%
- Fbg (72 h, time 3 day): 220.8 mg/dL
- Hb (72 h, time 3 day): 13.6 g/dL
- Ht (72 h, time 3 day): 40.1%
- Lym (72 h, time 3 day): 70.4%
- MCH (72 h, time 3 day): 22 pg
- MCHC (72 h, time 3 day): 33.9%
- MCV (72 h, time 3 day): 64.7 fL
- Mono (72 h, time 3 day): 9%
- Neu (72 h, time 3 day): 20%
- PT (72 h, time 3 day): 11.8 s
- Plat (72 h, time 3 day): 119.8 x10_4/uL
- RBC (72 h, time 3 day): 619.2 x10_4/ul
- Ret (72 h, time 3 day): 7.3%
- WBC (72 h, time 3 day): 107.3 x10_2/uL
- KIDNEY_L (72 h, time 3 day): 1 g
- KIDNEY_R (72 h, time 3 day): 1 g
- KIDNEY_TOTAL (72 h, time 3 day): 2.1 g
- LIVER (72 h, time 3 day): 15.3 g
- A/G (72 h, time 3 day): 2
- ALP (72 h, time 3 day): 951 IU/L
- ALT (72 h, time 3 day): 42.6 IU/L
- AST (72 h, time 3 day): 69.6 IU/L
- BUN (72 h, time 3 day): 16.4 mg/dL
- CRE (72 h, time 3 day): 0.6 mg/dL
- Ca (72 h, time 3 day): 10.6 mg/dL
- Cl (72 h, time 3 day): 104.8 meq/L
- DBIL (72 h, time 3 day): 0.038 mg/dL
- GLC (72 h, time 3 day): 178.4 mg/dL
- IP (72 h, time 3 day): 7 mg/dL
- K (72 h, time 3 day): 4.3 meq/L
- LDH (72 h, time 3 day): 121.6 IU/L
- Na (72 h, time 3 day): 141.4 meq/L
- PL (72 h, time 3 day): 132.4 mg/dL
- RALB (72 h, time 3 day): 3.8 g/dL
- TBIL (72 h, time 3 day): 0.3 mg/dL
- TC (72 h, time 3 day): 74.2 mg/dL
- TG (72 h, time 3 day): 34.2 mg/dL
- TP (72 h, time 3 day): 5.7 g/dL
- gamma-GTP (72 h, time 3 day): 1.4 IU/L
- TERMINAL_BW ([…], time 7 day): 277.5 g
- TERMINAL_BW ([…], time 14 day): 313.1 g
- TERMINAL_BW ([…], time 28 day): 377.5 g
- APTT ([…], time 7 day): 18.6 s
- Bas ([…], time 7 day): 0%
- Eos ([…], time 7 day): 0.6%
- Fbg ([…], time 7 day): 217 mg/dL
- Hb ([…], time 7 day): 13.9 g/dL
- Ht ([…], time 7 day): 40.9%
- Lym ([…], time 7 day): 82.2%
- MCH ([…], time 7 day): 21.5 pg
- MCHC ([…], time 7 day): 33.9%
- MCV ([…], time 7 day): 63.5 fL
- Mono ([…], time 7 day): 6.8%
- Neu ([…], time 7 day): 10.8%
- PT ([…], time 7 day): 12 s
- Plat ([…], time 7 day): 125.7 x10_4/uL
- RBC ([…], time 7 day): 644 x10_4/ul
- Ret ([…], time 7 day): 4.3%
- WBC ([…], time 7 day): 103.8 x10_2/uL
- APTT ([…], time 14 day): 19.3 s
- Bas ([…], time 14 day): 0%
- Eos ([…], time 14 day): 1%
- Fbg ([…], time 14 day): 211.8 mg/dL
- Hb ([…], time 14 day): 14.4 g/dL
- Ht ([…], time 14 day): 42.6%
- Lym ([…], time 14 day): 82.8%
- MCH ([…], time 14 day): 21.1 pg
- MCHC ([…], time 14 day): 33.9%
- MCV ([…], time 14 day): 62.1 fL
- Mono ([…], time 14 day): 6%
- Neu ([…], time 14 day): 10.8%
- PT ([…], time 14 day): 12 s
- Plat ([…], time 14 day): 116.1 x10_4/uL
- RBC ([…], time 14 day): 685.4 x10_4/ul
- Ret ([…], time 14 day): 2.8%
- WBC ([…], time 14 day): 121 x10_2/uL
- APTT ([…], time 28 day): 20.8 s
- Bas ([…], time 28 day): 0%
- Eos ([…], time 28 day): 1.6%
- Fbg ([…], time 28 day): 223 mg/dL
- Hb ([…], time 28 day): 15 g/dL
- Ht ([…], time 28 day): 44.3%
- Lym ([…], time 28 day): 78.6%
- MCH ([…], time 28 day): 19.6 pg
- MCHC ([…], time 28 day): 33.9%
- MCV ([…], time 28 day): 57.8 fL
- Mono ([…], time 28 day): 7.4%
- Neu ([…], time 28 day): 12.2%
- PT ([…], time 28 day): 12.3 s
- Plat ([…], time 28 day): 108.9 x10_4/uL
- RBC ([…], time 28 day): 768.2 x10_4/ul
- Ret ([…], time 28 day): 2.8%
- WBC ([…], time 28 day): 122.3 x10_2/uL
- KIDNEY_L ([…], time 7 day): 1.2 g
- KIDNEY_R ([…], time 7 day): 1.2 g
- KIDNEY_TOTAL ([…], time 7 day): 2.4 g
- KIDNEY_L ([…], time 14 day): 1.2 g
- KIDNEY_R ([…], time 14 day): 1.3 g
- KIDNEY_TOTAL ([…], time 14 day): 2.5 g
- KIDNEY_L ([…], time 28 day): 1.4 g
- KIDNEY_R ([…], time 28 day): 1.4 g
- KIDNEY_TOTAL ([…], time 28 day): 2.8 g
- LIVER ([…], time 7 day): 17.5 g
- LIVER ([…], time 14 day): 19.2 g
- LIVER ([…], time 28 day): 21.4 g
- A/G ([…], time 7 day): 2
- ALP ([…], time 7 day): 932.2 IU/L
- ALT ([…], time 7 day): 35 IU/L
- AST ([…], time 7 day): 59.4 IU/L
- BUN ([…], time 7 day): 19.2 mg/dL
- CRE ([…], time 7 day): 0.6 mg/dL
- Ca ([…], time 7 day): 10.9 mg/dL
- Cl ([…], time 7 day): 104 meq/L
- DBIL ([…], time 7 day): 0.03 mg/dL
- GLC ([…], time 7 day): 190.8 mg/dL
- IP ([…], time 7 day): 8 mg/dL
- K ([…], time 7 day): 4.1 meq/L
- LDH ([…], time 7 day): 99 IU/L
- Na ([…], time 7 day): 140 meq/L
- PL ([…], time 7 day): 133.2 mg/dL
- RALB ([…], time 7 day): 3.9 g/dL
- TBIL ([…], time 7 day): 0.2 mg/dL
- TC ([…], time 7 day): 72.8 mg/dL
- TG ([…], time 7 day): 47 mg/dL
- TP ([…], time 7 day): 5.9 g/dL
- gamma-GTP ([…], time 7 day): 1.6 IU/L
- A/G ([…], time 14 day): 1.7
- ALP ([…], time 14 day): 877 IU/L
- ALT ([…], time 14 day): 36 IU/L
- AST ([…], time 14 day): 63.2 IU/L
- BUN ([…], time 14 day): 21.4 mg/dL
- CRE ([…], time 14 day): 0.6 mg/dL
- Ca ([…], time 14 day): 10.6 mg/dL
- Cl ([…], time 14 day): 104.4 meq/L
- DBIL ([…], time 14 day): 0.038 mg/dL
- GLC ([…], time 14 day): 195.8 mg/dL
- IP ([…], time 14 day): 6.7 mg/dL
- K ([…], time 14 day): 4.1 meq/L
- LDH ([…], time 14 day): 95.8 IU/L
- Na ([…], time 14 day): 141.4 meq/L
- PL ([…], time 14 day): 123.2 mg/dL
- RALB ([…], time 14 day): 3.9 g/dL
- TBIL ([…], time 14 day): 0.2 mg/dL
- TC ([…], time 14 day): 64.2 mg/dL
- TG ([…], time 14 day): 48.2 mg/dL
- TP ([…], time 14 day): 6.2 g/dL
- gamma-GTP ([…], time 14 day): 1.6 IU/L
- A/G ([…], time 28 day): 1.8
- ALP ([…], time 28 day): 700.6 IU/L
- ALT ([…], time 28 day): 39.8 IU/L
- AST ([…], time 28 day): 63.4 IU/L
- BUN ([…], time 28 day): 23 mg/dL
- CRE ([…], time 28 day): 0.7 mg/dL
- Ca ([…], time 28 day): 10.5 mg/dL
- Cl ([…], time 28 day): 106.4 meq/L
- DBIL ([…], time 28 day): 0.022 mg/dL
- GLC ([…], time 28 day): 192.6 mg/dL
- IP ([…], time 28 day): 6.4 mg/dL
- K ([…], time 28 day): 4.1 meq/L
- LDH ([…], time 28 day): 106.2 IU/L
- Na ([…], time 28 day): 140.8 meq/L
- PL ([…], time 28 day): 133 mg/dL
- RALB ([…], time 28 day): 4 g/dL
- TBIL ([…], time 28 day): 0.2 mg/dL
- TC ([…], time 28 day): 72 mg/dL
- TG ([…], time 28 day): 43.6 mg/dL
- TP ([…], time 28 day): 6.2 g/dL
- gamma-GTP ([…], time 28 day): 1.6 IU/L
